Laboratory results from patent US8653285B2 (Nippon Zoki Pharmaceutical Co., Ltd., priority 2008, dated 2014).
Counter-ions that a name gives are not always drawn. Like-named read-outs stand apart in the source and are kept apart here.

Tests used:
[1] = test system: histamine-induced vascular hyperpermeability; experiment: Rat histamine-induced vascular hyperpermeability reaction (in vivo antihistamine action); settings: SD male rat, oral administration, histamine injected intracutaneously 1 hour after administration, leaked Evans Blue
Experimental: An SD male rat (SPF) of 180 g in weight was previously fed for one week or more by allowing the rat to take a solid feed and tap water ad libitum, under the environment setting of a temperature of 22° C., humidity of 55% and an artificial illumination of 12 hours a day (light phase 8 am to 8 pm), and the rat was fasted overnight to be used for the experiment. Histamine.dihydrochloride (hereinafter referred to as histamine) and Evans Blue were used by dissolving each in physiological saline upon use. A substance to be tested was dissolved in water for injection or suspended in 0.5% carboxymethyl cellulose sodium, and the rat was orally administered with the solution or suspension (dose volume: 5 mL/kg body weight). After 1 hour from the administration, the physiological saline and the histamine solution were each intracutaneously injected to two locations (20 μg/0.05 ml/location) each on a back part of the rat of which hair was sheared with an electric clipper while anesthetizing with an ether. A 0.5% Evans Blue-containing physiological saline was injected into the tail vein of the rat (1 mL/200 g body weight) immediately before the intracutaneous injection of the histamine.
After 30 minutes, the animal was decapitated, and exsanguinated, and the skin was removed to measure an amount of leaked pigment in the blue-stained portion. The measurement of the amount of leaked pigment was carried out as follows. Skins of the pigment leaking site were cut out at two locations, 1 mL of a 2 mol/L aqueous potassium hydroxide solution was added thereto in a test tube, and the test tube was allowed to stand overnight at 37° C. to dissolve. Thereafter, 6 mL of a 1:3 mixed solution of 0.67 mol/L phosphoric acid and acetone was added to the solution, and the mixture was vigorously shaken for 10 minutes. Thereafter, the mixture was filtered, and the absorbance of the filtrate at 620 nm was measured. The absorbance obtained from the two locations of the sites injected with physiological saline, as blank value, was used for a compensation. The amount of leaked pigment was calculated from the calibration curve of Evans Blue at 620 nm.

cerebral H1 receptor = biological target: T1, cerebral H1 receptor (Mus musculus, UniProt P70174); experiment: Murine cerebral H1 receptor occupying content (ex vivo, 3H-pyrilamine binding in brain homogenate after oral administration)
T1 construct: The excised brain tissue was homogenized with Polytron (Kinematica); from tissue; host or cells: ICR mouse brain (entire brain except cerebellum and medulla oblongata), homogenate
T1 sequence (P70174 whole entry): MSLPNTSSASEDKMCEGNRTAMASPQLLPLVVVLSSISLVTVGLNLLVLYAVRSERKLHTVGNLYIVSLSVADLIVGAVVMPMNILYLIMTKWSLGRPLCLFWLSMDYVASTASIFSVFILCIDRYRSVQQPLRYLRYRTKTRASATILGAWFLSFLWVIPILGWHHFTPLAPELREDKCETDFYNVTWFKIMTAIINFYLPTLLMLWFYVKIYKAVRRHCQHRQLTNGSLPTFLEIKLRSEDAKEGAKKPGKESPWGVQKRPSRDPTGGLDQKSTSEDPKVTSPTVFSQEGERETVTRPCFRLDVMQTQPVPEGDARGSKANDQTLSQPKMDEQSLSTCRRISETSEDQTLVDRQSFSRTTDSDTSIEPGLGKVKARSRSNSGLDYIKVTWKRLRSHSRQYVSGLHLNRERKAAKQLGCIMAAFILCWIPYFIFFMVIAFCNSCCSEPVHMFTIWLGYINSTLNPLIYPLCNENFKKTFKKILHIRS
Experimental: A 6-week-old ICR male mouse was previously fed for one week or more by allowing the mouse to take a solid feed and tap water ad libitum, under the environment setting of a temperature of 22° C., humidity of 55% and an artificial illumination of 12 hours a day, and the mouse was fasted overnight to be used for the experiment. A substance to be tested was dissolved with water for injection or suspended in 0.5% carboxymethyl cellulose solution, and the solution or suspension was orally administered to the mouse (dose volume: 0.1 mL/10 g body weight). After 1 hour from the oral administration, the mouse was decapitated, and the entire brain, except for cerebellum and medulla oblongatae, was rapidly excised. The excised brain tissue was homogenized with Polytron (Kinematica) in an ice-cooled 50 mmol/L phosphate buffered saline (pH 7.4, 100 mg/1.9 mL).
To a test tube for reaction (TPX-Tube) were added 180 μL of the brain homogenate, and 10 μL of ^3H-pyrilamine solution (final concentration: 2 nmol/L) and 10 μL of a non-labeled pyrilamine solution (final concentration: 200 μmol/L) or a 50 mmol/L phosphate buffered saline, and the mixture was incubated at room temperature for 45 minutes, and 2.0 mL of an ice-cooled, 50 mmol/L phosphate buffered saline was then added thereto to stop the reaction. The reaction mixture was filtered with a GF/B filter ([…]), and the filtrate was placed in a vial and dried overnight at 60 degrees. After drying, 10 mL of a scintillator (AL-1, toluene-based, DOJINDO LABORATORIES) was added to the product, and the disintegration per minute (dpm) was measured with a liquid scintillation counter (Packard, U.S.A., TRI-CARB 2700TR) (5 minutes/vial).

[2] = biological target: human histamine H1 receptor (Homo sapiens, UniProt P35367); experiment: In vitro human histamine H1 receptor binding experiment ([3H]pyrilamine, HEK293A cells stably expressing the receptor); settings: [3H]pyrilamine 3 nmol/L, room temperature 60 minutes
Chain of human histamine H1 receptor (P35367 whole entry): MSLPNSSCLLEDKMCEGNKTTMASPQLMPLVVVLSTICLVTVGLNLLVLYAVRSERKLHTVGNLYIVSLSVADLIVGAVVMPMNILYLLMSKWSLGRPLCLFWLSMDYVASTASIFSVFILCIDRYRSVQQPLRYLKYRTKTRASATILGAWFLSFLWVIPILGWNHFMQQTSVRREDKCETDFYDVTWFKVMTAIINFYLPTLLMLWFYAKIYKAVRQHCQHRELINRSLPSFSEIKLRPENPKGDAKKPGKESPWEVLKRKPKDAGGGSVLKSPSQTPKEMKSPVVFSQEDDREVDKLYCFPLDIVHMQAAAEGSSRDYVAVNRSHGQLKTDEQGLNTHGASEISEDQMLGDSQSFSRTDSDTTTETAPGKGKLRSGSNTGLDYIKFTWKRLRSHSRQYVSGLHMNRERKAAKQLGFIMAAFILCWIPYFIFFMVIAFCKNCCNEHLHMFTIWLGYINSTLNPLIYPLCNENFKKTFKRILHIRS
Experimental: Recombinant human histamine H1 receptor plasmid (prepared by Invitrogen) was transfected to HEK293A cells with Lipofectamine 2000 (Invitrogen). Cells stably expressing human histamine H1 receptor were screened with Geneticin (Invitrogen). The cells were continued to be cultured using a Dulbecco's Modified Eagle Medium containing 10% fetal bovine serum, 0.1 mmol/L MEM Non-Essential Amino Acids Solution, 2 mmol/L L-glutamine and 0.7 mg/mL Geneticin in a 5% CO2 incubator at 37° C. The cells stably expressing human histamine H1 receptor were prepared using 50 mmol/L Tris-HCl (pH 7.5) (hereinafter referred to as buffer) containing 0.1% bovine serum albumin, so as to have a concentration of 3×10^6 cells/mL, to give a cell sample preparation. Fifty microliters of the buffer, 50 μL of a test substance solution at various concentrations, and 50 μL of [^3H]pyrilamine solution (final concentration: 3 nmol/L) were added to each of the wells on the 96-well plate, and stirred, and 100 μL of the cell sample preparation was then added thereto (at a concentration of 3×10^5 cells/well) to initiate the reaction.
The cells were incubated at room temperature for 60 minutes, and then filtered on UniFilter GF/C plate (Packard) immersed in 0.5% polyethyleneimine using a cell harvester (IH-110, INNOTECH CORPORATION), to stop the reaction, and the plate was washed with the buffer. The plate after washing was sufficiently dried, and 20 μL of a scintillator (MaxiLight, manufactured by Hidex) was added thereto, and count per minute (cpm) was measured with a multi-labeled microplate reader (Plate Chameleo II, Hidex). The nonspecific binding was cpm in a case where 30 μmol/L pyrilamine was added. The experiments were carried out at n=3, and at least repeated 3 times.

[3] = ICR male mouse, oral administration, brain excised after 1 hour, larger ID50 = lower brain transfer, read-out: ID50 (the source's name)

Row | SMILES | ED50 (cerebral H1 receptor; [3]) [mg/kg] | IC50 [2] [nM] | ED50 ([1]; read-out: ED50) [mg/kg] | ED50 (cerebral H1 receptor; mouse, po, 1 h, read-out: ID50) [mg/kg] | ED50 [1] [mg/kg] | ID50 (cerebral H1 receptor; ICR male mouse, oral administration, brain excised after 1 hour, larger ID50 = lower brain transfer) [mg/kg]
1 | CN(C)CC/C=C1/c2ccccc2CCc2sc(C(=O)O)cc21 [Compound 16, (Z)-[4-(3-Dimethylaminopropylidene)-9,10-dihydro-4H-1-thiabenzo[f]azulen-2-yl]carboxylic acid] | 45.8 |  | 0.299 |  |  | 
2 | CN(C)CC/C=C1/c2ccccc2CCc2sc(CC(=O)O)cc21.Cl [Compound 18, (Z)-[4-(3-Dimethylaminopropylidene)-9,10-dihydro-4H-1-thiabenzo[f]azulen-2-yl]acetic acid hydrochloride] |  |  | 0.063 | 2.1 |  | 
3 | CN(C)CC/C=C1\c2cc(CC(=O)O)ccc2OCc2ccsc21 [Compound 19, (E)-[4-(3-Dimethylaminopropylidene)-4,10-dihydro-9-oxa-3-thiabenzo[f]azulen-6-yl]acetic acid] | 6.08 | 56.9 | 0.24 |  |  | 
4 | CNCC/C=C1\c2cc(C(C)(C)C(=O)O)ccc2OCc2ccsc21 [Compound 25, (E)-{2-Methyl-2-[4-(3-methylaminopropylidene)-4,10-dihydro-9-oxa-3-thiabenzo [f]azulen-6-yl]}propionic acid] |  |  |  |  | 5.70 | >200
5 | O=C(O)Cc1ccc2c(c1)/C(=C\CCN1CCCC1)c1sccc1CO2 [Compound 26, (E)-{4-[3-(Pyrrolidin-1-yl)propylidene]-4,10-dihydro-9-oxa-3-thiabenzo[f]azulen-6-yl}acetic acid] | 80.9 | 19.2 | 0.156 |  |  | 
6 | O=C(O)Cc1ccc2c(c1)/C(=C/CCN1CCCC1)c1sccc1CO2 [Compound 27, (Z)-{4-[3-(Pyrrolidin-1-yl)propylidene]-4,10-dihydro-9-oxa-3-thiabenzo[f]azulen-6-yl}acetic acid] | > 200 | 70.2 | 0.226 |  |  | 
7 | CCN(C)CC/C=C1\c2cc(CC(=O)O)ccc2OCc2ccsc21 [Compound 30] |  | 57.6 | ~0.3 | 95 |  | 
8 | CN(C)CC/C=C1/c2cc(CCC(=O)O)ccc2OCc2sccc21.Cl [Compound 57, (Z)-3-[4-(3-Dimethylaminopropylidene)-4,10-dihydro-9-oxa-1-thiabenzo[f]azulen-6-yl]propionic acid hydrochloride] |  | 56.3 | ~0.1 | > 80 |  | 
9 | CN1CCC(=C2c3ccccc3CC(=O)c3sccc32)CC1 [Ketotifen, reference compound] |  |  | 0.54 |  |  | 

More lines, main results first:

Row | ED50 (cerebral H1 receptor; [3]) [mg/kg] | IC50 [2] [nM] | SMILES | ED50 ([1]; read-out: ED50) [mg/kg] | ED50 (cerebral H1 receptor; mouse, po, 1 h, read-out: ID50) [mg/kg] | ED50 [1] [mg/kg] | ID50 (cerebral H1 receptor; ICR male mouse, oral administration, brain excised after 1 hour, larger ID50 = lower brain transfer) [mg/kg]
10 | 109 |  | CN(C)CC/C=C1/c2cc(CC(=O)O)ccc2OCc2ccsc21 [Compound 20, (Z)-[4-(3-Dimethylaminopropylidene)-4,10-dihydro-9-oxa-3-thiabenzo[f]azulen-6-yl]acetic acid] | 0.45 |  |  | 
11 | 18.7 | 60 | CN(C)CCC=C1c2cc(C(C)(C)C(=O)O)ccc2OCc2ccsc21 [Compound 22, (E,Z)-2-[4-(3-Dimethylaminopropylidene)-4,10-dihydro-9-oxa-3-thiabenzo[f]azulen-6-yl]-2-methylpropionic acid] | ~1 |  |  | 
12 | 174 | 13.2 | CCOC(=O)C(C)(C)c1cc2c(s1)C(=O)Cc1ccccc1C2=CCCN(C)C [Compound 24, Ethyl (E,Z)-2-[4-(3-dimethylaminopropylidene)-10-oxo-9,10-dihydro-4H-1-thiabenzo[f]azulen-2-yl]-2-methylpropionate hydrochloride] | ~1 |  |  | 
13 | 5.85 | 43.4 | CN(C)CC/C=C1/c2cc(CC(=O)O)ccc2OCc2sccc21 [Compound 28, (Z)-[4-(3-Dimethylaminopropylidene)-4,10-dihydro-9-oxa-1-thiabenzo[f]azulen-6-yl]acetic acid] | < 0.1 |  |  | 
14 | 23.7 | 70.7 | CN(C)CC/C=C1\c2cc(CC(=O)O)ccc2OCc2sccc21 [Compound 29, (E)-[4-(3-Dimethylaminopropylidene)-4,10-dihydro-9-oxa-1-thiabenzo[f]azulen-6-yl]acetic acid] | < 0.1 |  |  | 
15 | 21.1 |  | O=C(O)Cc1ccc2c(c1)/C(=C/CCN1CCOCC1)c1sccc1CO2 [Compound 33, (Z)-{4-[3-(Morpholin-4-yl)propylidene]-4,10-dihydro-9-oxa-3-thiabenzo[f]azulen-6-yl}acetic acid] | ~0.3 |  |  | 
16 | 34.8 | 31.4 | O=C(O)Cc1ccc2c(c1)/C(=C\CCN1CCCCC1)c1sccc1CO2 [Compound 34, (E)-{4-[3-(Piperidin-1-yl)propylidene]-4,10-dihydro-9-oxa-3-thiabenzo[f]azulen-6-yl}acetic Acid] | ~0.3 |  |  | 
17 | 65.7 |  | O=C(O)Cc1ccc2c(c1)/C(=C/CCN1CCCCC1)c1sccc1CO2 [Compound 35, (Z)-{4-[3-(Piperidin-1-yl)propylidene]-4,10-dihydro-9-oxa-3-thiabenzo[f]azulen-6-yl}acetic acid] | ~0.1 |  |  | 
18 | > 80 |  | O=C(O)Cc1ccc2c(c1)/C(=C/CCNCc1ccccc1)c1sccc1CO2 [Compound 43, (Z)-[4-(3-Benzylaminopropylidene)-4,10-dihydro-9-oxa-3-thiabenzo[f]azulen-6-yl]acetic acid] | 1.31 |  |  | 
19 | > 80 | 89.1 | CN1CCN(CC/C=C2\c3cc(CC(=O)O)ccc3OCc3ccsc32)CC1 [Compound 50, (E)-{4-[3-(4-Methylpiperadin-1-yl)propylidene]-4,10-dihydro-9-oxa-3-thiabenzo[f]azulen-6-yl}acetic acid] | 1.34 |  |  | 
20 | 110 | 23 | O=C(O)CCc1ccc2c(c1)/C(=C\CCN1CCCC1)c1ccsc1CO2 [Compound 58, (E)-3-{4-[3-(Pyrrolidin-1-yl)propylidene]-4,10-dihydro-9-oxa-1-thiabenzo[f]azulen-6-yl}propionic acid] | ~0.1 |  |  | 
21 |  | 53.8 | CC(C)(C(=O)O)c1cc2c(s1)CCc1ccccc1/C2=C\CCN1CCCC1 [Compound 69, (E,Z)-2-Methyl-2-{4-[3-(pyrrolidin-1-yl)propylidene]-9,10-dihydro-4H-1-thiabenzo[f]azulen-2-yl}propionic acid] |  |  |  | 
